Reference: ChEMBL document CHEMBL1687786, “Diversity of staphylococcal cassette chromosome mec elements in predominant methicillin-resistant Staphylococcus aureus clones in a small geographic area” (2010)

How the values were obtained:
Format in all cases: functional
Staphylococcus aureus [1] = experiment: Antimicrobial activity against Staphylococcus aureus clone 1-1 harboring staphylococcal cassette chromosome mec element type 4 assessed as percent susceptible isolates by kirby-bauer method
Staphylococcus aureus [2] = experiment: Antimicrobial activity against Staphylococcus aureus clone 2-2 harboring staphylococcal cassette chromosome mec element type 4 assessed as percent susceptible isolates by kirby-bauer method
Staphylococcus aureus [3] = experiment: Antimicrobial activity against Staphylococcus aureus clone 2-2 harboring staphylococcal cassette chromosome mec element type 6 assessed as percent susceptible isolates by kirby-bauer method
Staphylococcus aureus [4] = experiment: Antimicrobial activity against Staphylococcus aureus clone 4-4 harboring staphylococcal cassette chromosome mec element type 1 assessed as percent susceptible isolates by kirby-bauer method
Staphylococcus aureus [5] = experiment: Antimicrobial activity against Staphylococcus aureus clone 1-1 harboring staphylococcal cassette chromosome mec element type U assessed as percent susceptible isolates by kirby-bauer method
Staphylococcus aureus [6] = experiment: Antimicrobial activity against Staphylococcus aureus clone 4-4 harboring staphylococcal cassette chromosome mec element type 2 assessed as percent susceptible isolates by kirby-bauer method
Staphylococcus aureus [7] = experiment: Antimicrobial activity against Staphylococcus aureus clone 2-2 harboring staphylococcal cassette chromosome mec element type 5 assessed as percent susceptible isolates by kirby-bauer method
Staphylococcus aureus [8] = experiment: Antimicrobial activity against Staphylococcus aureus clone 1-1 harboring staphylococcal cassette chromosome mec element type 5 assessed as percent susceptible isolates by kirby-bauer method
Staphylococcus aureus [9] = experiment: Antimicrobial activity against Staphylococcus aureus clone 2-2 harboring staphylococcal cassette chromosome mec element type 1 assessed as percent susceptible isolates by kirby-bauer method
Staphylococcus aureus [10] = experiment: Antimicrobial activity against Staphylococcus aureus clone 2-2 harboring staphylococcal cassette chromosome mec element type U3 assessed as percent susceptible isolates by kirby-bauer method
Staphylococcus aureus [11] = experiment: Antimicrobial activity against Staphylococcus aureus clone 3-3 harboring staphylococcal cassette chromosome mec element type U1 assessed as percent susceptible isolates by kirby-bauer method
Staphylococcus aureus [12] = experiment: Antimicrobial activity against Staphylococcus aureus clone 3-3 harboring staphylococcal cassette chromosome mec element type 6 assessed as percent susceptible isolates by kirby-bauer method
Staphylococcus aureus [13] = experiment: Antimicrobial activity against Staphylococcus aureus clone 3-3 harboring staphylococcal cassette chromosome mec element type U6 assessed as percent susceptible isolates by kirby-bauer method
Staphylococcus aureus [14] = experiment: Antimicrobial activity against Staphylococcus aureus clone 3-3 harboring staphylococcal cassette chromosome mec element type 2 assessed as percent susceptible isolates by kirby-bauer method
Staphylococcus aureus [15] = experiment: Antimicrobial activity against Staphylococcus aureus clone 4-4 harboring staphylococcal cassette chromosome mec element type 5 assessed as percent susceptible isolates by kirby-bauer method
Staphylococcus aureus [16] = experiment: Antimicrobial activity against Staphylococcus aureus clone 3-3 harboring staphylococcal cassette chromosome mec element type 1 assessed as percent susceptible isolates by kirby-bauer method
Staphylococcus aureus [17] = experiment: Antimicrobial activity against Staphylococcus aureus clone 2-2 harboring staphylococcal cassette chromosome mec element type U5 assessed as percent susceptible isolates by kirby-bauer method
Staphylococcus aureus [18] = experiment: Antimicrobial activity against Staphylococcus aureus clone 4-4 harboring staphylococcal cassette chromosome mec element type U3 assessed as percent susceptible isolates by kirby-bauer method
Staphylococcus aureus [19] = experiment: Antimicrobial activity against Staphylococcus aureus clone 3-3 harboring staphylococcal cassette chromosome mec element type 4 assessed as percent susceptible isolates by kirby-bauer method
Staphylococcus aureus [20] = experiment: Antimicrobial activity against Staphylococcus aureus clone 4-4 harboring staphylococcal cassette chromosome mec element type 4 assessed as percent susceptible isolates by kirby-bauer method
Staphylococcus aureus [21] = experiment: Antimicrobial activity against Staphylococcus aureus clone 2-2 harboring staphylococcal cassette chromosome mec element type 2 assessed as percent susceptible isolates by kirby-bauer method
Staphylococcus aureus [22] = experiment: Antimicrobial activity against Staphylococcus aureus clone 3-3 harboring staphylococcal cassette chromosome mec element type U8 assessed as percent susceptible isolates by kirby-bauer method

Row | Molecule | Activity (Staphylococcus aureus [1]) | Activity (Staphylococcus aureus [2]) | Activity (Staphylococcus aureus [3]) | Activity (Staphylococcus aureus [4]) | Activity (Staphylococcus aureus [5]) | Activity (Staphylococcus aureus [6]) | Activity (Staphylococcus aureus [7]) | Activity (Staphylococcus aureus [8]) | Activity (Staphylococcus aureus [9]) | Activity (Staphylococcus aureus [10]) | Activity (Staphylococcus aureus [11]) | Activity (Staphylococcus aureus [12]) | Activity (Staphylococcus aureus [13]) | Activity (Staphylococcus aureus [15]) | Activity (Staphylococcus aureus [16]) | Activity (Staphylococcus aureus [17]) | Activity (Staphylococcus aureus [18]) | Activity (Staphylococcus aureus [19]) | Activity (Staphylococcus aureus [21]) | Activity (Staphylococcus aureus [22]) | other results
1 | CO/N=C(\C(=O)N[C@@H]1C(=O)N2C(C(=O)O)=C(CSc3nc(=O)c(O)nn3C)CS[C@H]12)c1csc(N)n1 [CEFTRIAXONE] | 2% | 0% | 0% | 0% | 0% | 0% | 11% | 0% | 11% | 0% | 0% | 0% | 0% | 0% | 0% | 0% | 0% | 0% | 0% | – | Activity (Staphylococcus aureus [14]): 0%; Activity (Staphylococcus aureus [20]): 0%
2 | CCC[C@@H]1C[C@@H](C(=O)N[C@@H]([C@H]2O[C@H](SC)[C@H](O)[C@@H](O)[C@H]2O)[C@H](C)Cl)N(C)C1 [CLINDAMYCIN] | 98% | 56% | 100% | 1% | 100% | 0% | 89% | 100% | 89% | 100% | 100% | 100% | 50% | 100% | 0% | 100% | 100% | 79% | 38% | 95% | –
3 | CC[C@H]1OC(=O)[C@H](C)[C@@H](O[C@H]2C[C@@](C)(OC)[C@@H](O)[C@H](C)O2)[C@H](C)[C@@H](O[C@@H]2O[C@H](C)C[C@H](N(C)C)[C@H]2O)[C@](C)(O)C[C@@H](C)C(=O)[C@H](C)[C@@H](O)[C@]1(C)O [ERYTHROMYCIN] | 98% | 39% | – | 1% | 100% | 0% | 89% | 100% | 67% | 100% | 100% | 100% | 50% | 100% | 0% | 0% | 0% | – | 1% | 98% | –
4 | CC(=O)O[C@H]1C[C@@]2(C)[C@@H](C[C@@H](O)[C@H]3[C@@]4(C)CC[C@@H](O)[C@@H](C)[C@@H]4CC[C@@]32C)/C1=C(\CCC=C(C)C)C(=O)O [FUSIDIC ACID] | 83% | 100% | 100% | 99% | 0% | 100% | 100% | 100% | 0% | 100% | – | 0% | 50% | 50% | 0% | 100% | 100% | 96% | 98% | 100% | Activity (Staphylococcus aureus [20]): 100%
5 | CO[C@H]1/C=C/O[C@@]2(C)Oc3c(C)c(O)c4c(O)c(c(/C=N/N5CCN(C)CC5)c(O)c4c3C2=O)NC(=O)/C(C)=C\C=C\[C@H](C)[C@H](O)[C@@H](C)[C@@H](O)[C@@H](C)[C@H](OC(C)=O)[C@@H]1C [RIFAMPIN] | 100% | 94% | 100% | 96% | 100% | 100% | 100% | 100% | 100% | 100% | 100% | 100% | 100% | 100% | 100% | 100% | 100% | 100% | 100% | 100% | Activity (Staphylococcus aureus [14]): 100%; Activity (Staphylococcus aureus [20]): 100%
6 | GENTAMICIN | 98% | 94% | 100% | 95% | 100% | 3% | 0% | 100% | 100% | 100% | 100% | 100% | 100% | 100% | 97% | 100% | 100% | 100% | 100% | 100% | Activity (Staphylococcus aureus [14]): 100%; Activity (Staphylococcus aureus [20]): 100%
